Assays:
[1] = tested on: keratinocyte cell line (HaCat); assay: Metabolic activity of human keratinocytes (Resazurin Assay); assay type: cell-based
[2] = Cysteine depletion protocol (glutathione in solution depletion); conditions: FIG. 1A
Procedure: In an embodiment, Cysteine depletion Protocol-Glutathione in solution depletion protocol—“in house development protocol” was applied: • In a test tube, mix 10 μL of the 100 mM test chemical solution with 190 μL of GSH solution (20 μL of GSH 2 mM and 170 μL of PB) and Incubated at RT, protected from light, for 1 h in a tube roller (40 rpm) • […]; [test chemical]f=5 mM; [GSH]f=0.2 mM; • 20 μL of Ellman's reagent 10 mM, a thiol sensitive colorimetric reagent was added. Mix gently by tapping manually in the test tube and incubate for 10 min at RT, in a test tube rotator protected from light; • The absorbance was read in a microplate reader at 405 nm. • Note: For each assay, a fresh Glutathione stock of 50 mM (0.00768 g in 500 μL of PBS) and the second stock of 2 mM in PBS (2 μL of the […] solution+48 μl of PBS) were freshly prepared.
In an embodiment, Control and Test Chemical Preparation was applied: • DNFB is used as the positive control for the assay in every assay run. For the negative control LA is used and for the reference control three types of reference controls are included in each study: • Reference control A is made with the solvent DMSO, with incubation with Ellman's reagent and is used to calculate the maximum fluorescence or absorbance in the presence of CYS containing peptides. […]
Test Chemicals: In an embodiment, test chemicals were pre-weighted into 1.5 mL test tubes and dissolved in 1 mL of DMSO to prepare a 100 mM solution immediately before use. The weight of the test chemical to be added to the vial is determined based on the molecular weight and purity. […]
In an embodiment, for the data analysis, the percent depletion of peptide is determined by using the following formula: […]

[3] = tested on: NRF2 dependent genes in HaCaT; assay: Expression of NRF2 dependent genes in keratinocytes (real time PCR); assay type: cell-based, human; conditions: 6 h
Procedure: HaCaT is cultured with Dulbecco's Modified Eagle's Medium (DMEM) (Sigma-Aldrich, St. Louis, MO, USA), supplemented with 10% (v/v) heat-inactivated fetal bovine serum (FBS), 1% (v/v) antibiotic solution (100 U/mL penicillin, 100 μg/mL streptomycin) (Gibco, Carlsbad, CA, USA), 3.7 g/L sodium bicarbonate and 1 mM sodium pyruvate (Sigma-Aldrich, St. Louis, MO, USA).
In an embodiment, HaCaT cells are seeded in 6-well plates at a density of 6×10^5 cells/well and allowed to adhere for 24 h. After that, cells are incubated for 24 h with exposure medium (control) or treated with 10 mM of NAC, 10 mM of LYS, 8 μM of DNFB, 100 μM of MI, or 10 mM+DNFB, 10 mM LYS+DNFB and 10 mM+MI, 10 mM LYS+MI for 6 h or 24 h.
In an embodiment, total RNA (ribonucleic acid) is extracted from HaCaT treated cells, as previously described by our group [37], with NZYol reagent, according to the manufacturer's instructions and its concentration is determined by OD260 measurement using a NanoDrop spectrophotometer (Thermo Scientific, Wilmington, DE, USA). Samples are stored in RNA Storage Solution at −80° C. until use. Total RNA (1 g) is reverse-transcribed using the iScript Select cDNA Synthesis Kit, and real-time reverse transcriptase-polymerase chain reaction (RT-PCR) reactions are performed, in duplicate for each sample, on a Bio-Rad MyCycler iQ5 (Hercules, CA, USA), as previously described by our group [38].
In an embodiment, after amplification, a threshold is set for each gene and Ct values are calculated for all samples. Gene expression changes are analyzed using Bio-Rad CFX Maestro 1.1 system software (Hercules, CA, USA). The results are normalized using Hprt-1 as the reference gene. Primer sequences are designed using Beacon Designer software version 7.7 (Premier Biosoft International, Palo Alto, CA, USA) and thoroughly tested.

[4] = tested on: Poly-L-Lysine Hydrobromide (PLL); assay: Lysine depletion protocol (in chemico reactivity towards lysine); conditions: 20 mM molecule incubated 1 h with DNFB 5 mM; FIG. 1B
Procedure: In an embodiment, a Lysine depletion Protocol—“in house development protocol” was applied, comprising: Dissolve 0.01 g of Poly-L-Lysine Hydrobromide (PLL) (Sigma, P1399) in 100 mL of purified water (use within 2 months). Filter the solution with a syringe filter to remove aggregates and store ate 4° C. for further use. For plate coating add 50 μL of PLL to each well of the 96 black bottom glass microplate (Corning ref 45806) and incubate for 2 hours at 37° C. or 24 h at room temperature.
In an embodiment, after the coating procedure, the contents of the plate were discarded into a sink and the plate is washed 3 times with 200 μL of PBS per well. Blot any residual PBS by firmly tapping the plate upside-down on absorbent paper. 20 mM of each potential ACD inhibitory molecule/mixture is added and incubated with 70 μl of the strong skin sensitizer 1-fluoro-2,4-dinitrobenzene (DNFB) (5 mM in DMSO) for 1h; the mixture was transferred to the plate and incubated for 24 h at 37° C. The contents of the plate were discarded and the wells were washed 3 times with PBS as previously reported. 70 μL of 10 μM Fluorescein-5-Ex-Succinimidyl Ester (FSE) were added and incubated for 1 h in the dark at 37° C. The contents of the plate were discarded; the wells were washed 3 times with PBS as previously stated. The fluorescence was read in a microplate reader (Exc 485±20 nm and Em 530±30 nm). Synergy™ HT plate reader (BioTek Instruments, Inc., Winooski, VT, USA): Bottom read with a sensibility of 50. […]
In an embodiment, Reference control A is made with the solvent DMSO, with incubation with FSE and is used to calculate the maximum fluorescence or absorbance in the presence of LYS. […]
In an embodiment, Test chemicals were pre-weighted into 1.5 mL test tubes and dissolved in 1 mL of DMSO to prepare a 100 mM solution immediately before use. The weight of the test chemical to be added to the vial was determined based on the molecular weight and purity. […]
In an embodiment, for the data Analysis the percentage of peptide depletion is determined by using the following formula: […]

[5] = incubated before DNFB, vs DNFB alone
[6] = incubated before MI, vs MI alone

## NCCCC[C@H](N)C(=O)O [LYS, lysine]
[1]
  cytotoxicity (metabolic activity): do not display cytotoxicity
[2]
  reactivity of the strong allergen DNFB towards cysteine (Glutathione depletion): significantly inhibit
[3]; [5]
  HMOX1 expression: significantly decrease
  NQO1 expression: significantly decrease
[4]
  reactivity of the strong allergen DNFB towards lysine (Lysine depletion): significantly inhibit

## CC(=O)N[C@@H](CS)C(=O)O [NAC, n-acetyl cysteine]
[1]
  cytotoxicity (metabolic activity): do not display cytotoxicity
[2]
  reactivity of the strong allergen DNFB towards cysteine (Glutathione depletion): significantly inhibit
[3]; [5]
  HMOX1 expression: significantly decrease
[3]; [6]
  HMOX1 expression: significantly decrease
  TRX1 expression: significantly decrease
[4]
  reactivity of the strong allergen DNFB towards lysine (Lysine depletion): significantly inhibit
